15 molecules from patent US20060084688A1, “Aromatic sulfone hydroxamic acid metalloprotease inhibitor” (priority 1997, published 2006) can be followed below.

One series relates to TNFrII. The series can be described thus: Tumor necrosis factor assay: TNF Receptor II ELISA on supernatant of PMA-stimulated U-937 cells. The settings on record: Homo sapiens, U-937, read-out: TNFRII Release IC50 in micromolar. A general note: In an ELISA, binding on a coated surface is turned into a signal by an enzyme label.
Series [1] deals with human monocytic line U-937. The format is cell-based.
The next series deals with T1, recombinant human MMP-1 (Homo sapiens, UniProt P03956).
T1 construct: made in house; host or cells: transfected HT-1080 cells
T1 sequence (P03956 100-469): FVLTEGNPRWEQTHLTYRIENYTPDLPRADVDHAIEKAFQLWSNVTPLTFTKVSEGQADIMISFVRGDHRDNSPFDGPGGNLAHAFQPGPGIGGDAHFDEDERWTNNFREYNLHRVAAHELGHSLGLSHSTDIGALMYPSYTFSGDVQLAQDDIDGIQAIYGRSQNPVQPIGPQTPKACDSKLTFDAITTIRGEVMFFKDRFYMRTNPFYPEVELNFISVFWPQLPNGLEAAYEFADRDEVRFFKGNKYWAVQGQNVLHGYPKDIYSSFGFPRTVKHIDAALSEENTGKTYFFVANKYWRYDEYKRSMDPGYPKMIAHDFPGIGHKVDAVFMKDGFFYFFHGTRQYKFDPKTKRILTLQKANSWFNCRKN
The experiment in a line: biochemical. The settings on record: Inhibition Table B.

The next series addresses recombinant human MMP-13 (Homo sapiens, UniProt P45452). The series can be described thus: biochemical. The settings on record: Inhibition Table B.
For a further series, the target named is T2, recombinant human MMP-2 (Homo sapiens, UniProt P08253).
T2 sequence (P08253 110-660): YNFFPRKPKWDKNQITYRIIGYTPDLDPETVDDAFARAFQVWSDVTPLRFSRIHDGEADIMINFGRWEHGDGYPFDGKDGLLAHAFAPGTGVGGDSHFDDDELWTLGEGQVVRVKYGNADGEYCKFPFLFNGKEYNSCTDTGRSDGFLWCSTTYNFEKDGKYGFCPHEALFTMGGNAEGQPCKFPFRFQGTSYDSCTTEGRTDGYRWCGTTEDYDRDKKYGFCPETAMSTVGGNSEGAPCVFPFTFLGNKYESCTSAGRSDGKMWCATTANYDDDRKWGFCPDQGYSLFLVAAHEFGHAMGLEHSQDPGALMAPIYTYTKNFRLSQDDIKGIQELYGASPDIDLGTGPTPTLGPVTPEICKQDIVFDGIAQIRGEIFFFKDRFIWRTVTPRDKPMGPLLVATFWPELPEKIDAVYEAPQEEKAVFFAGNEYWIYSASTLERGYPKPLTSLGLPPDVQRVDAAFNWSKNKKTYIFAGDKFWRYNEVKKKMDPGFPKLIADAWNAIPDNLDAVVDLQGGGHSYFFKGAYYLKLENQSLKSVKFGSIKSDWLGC
The series can be described thus: biochemical. Particulars: Inhibition Table B.

Each structure is given as a SMILES string. Read-outs that look alike come from different tables or passages of the source. Where only a bound is given, the exact number is not on record here.

Regarding `Cl.O=C(NO)C1(S(=O)(=O)c2ccc(Oc3ccccc3)cc2)CCNCC1` [Example 4, N-hydroxy-4-[(4-phenoxyphenyl)sulfonyl]-4-piperidinecarboxamide], in the series on TNFrII, the IC50 is greater than 100 µM. The “MTS Toxicity TD50” value in series [1] is greater than 100 µM.
For `C#CCN1CCC(C(=O)NO)(S(=O)(=O)c2ccc(Oc3ccccc3)cc2)CC1.Cl` [Example 6, N-hydroxy-4-[(4-phenoxyphenyl)sulfonyl]-1-(2-propynyl)-4-piperidinecarboxamide] the same measures were greater than 100 µM and greater than 100 µM.
The corresponding values for `C#CCN1CCC(C(=O)NO)(S(=O)(=O)c2ccc(Sc3ccccc3)cc2)CC1.Cl` [Example 9, N-hydroxy-4-([4-(phenylthio)phenyl]sulfonyl]-1-(2-propynyl)-4-piperidinecarboxamide] are greater than 100 µM and greater than 100 µM.
On to `C#CCN1CCC(C(=O)NO)(S(=O)(=O)c2ccc(Oc3ccc4c(c3)OCO4)cc2)CC1.Cl` [Example 10, 4-[[4-(1,3-benzodioxol-5-yloxy)phenyl]sulfonyl]-N-hydroxy-1-(2-propynyl)-4-piperidinecarboxamide], for which the IC50 in the series with TNFrII was greater than 100 µM. Besides, the “MTS Toxicity TD50” value in series [1] was greater than 100 µM.
On to `C#CCN1CCC(C(=O)NO)(S(=O)(=O)c2ccc(SC3CCCCC3)cc2)CC1.Cl` [Example 13, 4-[[4-(cyclohexylthio)-phenyl]sulfonyl]-N-hydroxy-1-(2-propynyl)-4-piperidinecarboxamide], for which the IC50 in the series on TNFrII was greater than 100 µM. In addition, in series [1], the “MTS Toxicity TD50” value was greater than 100 µM.
For `Cl.O=C(NO)C1(S(=O)(=O)c2ccc(Sc3ccc(F)cc3)cc2)CCN(C2CC2)CC1` [Example 27, 1-cyclopropyl-4-[[4-[(4-fluorophenyl)thio]phenyl]sulfonyl]-N-hydroxy-4-piperidinecarboxamide] the same measures were greater than 100 µM and 100 µM.
For `COCCN1CCC(C(=O)NO)(S(=O)(=O)c2ccc(Sc3ccccc3)cc2)CC1.Cl` [Example 35, N-hydroxy-1-(2-methoxyethyl)-4-[[4-(phenylthio)phenyl]-sulfonyl]-4-piperidinecarboxamide, monohydrochloride] the same measures were greater than 100 µM and greater than 100 µM.
For the molecule `O=C(NO)C1(S(=O)(=O)c2ccc(Oc3ccc(OC(F)(F)F)cc3)cc2)CCOCC1` [Example 69], in the series on TNFrII, the IC50 is greater than 100 µM. Also, the “Blood Level @ 3 min” value (rat, in vivo, 20 mg/kg) is 44000 ng/mL. For the same molecule, under “rat, in vivo, po, 20 mg/kg”, the BA is recorded as 35.9% and the “Blood Level @ 6 hr” value was determined as 1172 ng/mL. The “MTS Toxicity TD50” value in series [1] came out at 100 µM.
As for `Cc1cc(Oc2ccc(S(=O)(=O)C3(C(=O)NO)CCNCC3)cc2)ccc1Cl.Cl` [Example 79, 4-[[4-(4-chloro-3-methylphenoxy)phenyl]sulfonyl]-N-hydroxy-4-piperidinecarboxamide, monohydrochloride], the IC50 at recombinant human MMP-1 was greater than 10 µM. Moreover, at recombinant human MMP-13, the IC50 was 0.0017 µM. On recombinant human MMP-2, the IC50 was determined as 0.001 µM. For the same molecule, where the note is “Rat Intraveneous, 20 mpk”, the “AUC (0-∞)” value was determined as 6110 ng·h/mL and the t1/2 is 1.82 h. Besides, the “Blood Level @ 3 min” value (Rat Intraveneous, 20 mpk, 3 min) worked out at 13990 ng/mL. Further, under “Rat Oral, 20 mpk”, the “AUC (0-6 hr)” value was 70 ng·h/mL, the BA was found to be 1.1% and the Cmax amounted to 20 ng/mL. The “Blood Level @ 6 hr” value (Rat Oral, 20 mpk, 6 hr) amounted to 10 ng/mL.
Consider `O=C(NO)C1(S(=O)(=O)c2ccc(Sc3ccccc3)cc2)CCOCC1` [Example 95, Tetrahydro-N-hydroxy-4-[[4-(phenylthio)phenyl]sulfonyl]-2H-pyran-4-carboxamide], for which the half-inhibitory concentration (IC50) in the series on TNFrII was greater than 100 µM. The t1/2 (Rat Intraveneous, 20 mpk) is 1.06 h. For the same molecule, the “MTS Toxicity TD50” value in series [1] is greater than 100 µM.
For `O=C(NO)C1(S(=O)(=O)c2ccc(Oc3ccc(C(F)(F)F)cc3)cc2)CCOCC1` [Example 379] the same measures were greater than 100 µM, 1.74 h and 80 µM.
Under “Rat Intraveneous, 20 mpk”, `COCCN1CCC(C(=O)NO)(S(=O)(=O)c2ccc(Oc3ccc(C(F)(F)F)cc3)cc2)CC1.Cl` [Example 418, N-hydroxy-1-(2-methoxyethyl)-4-[[4-[4-(trifluoromethyl)-phenoxy]phenyl]sulfonyl}-4-piperidinecarboxamide, monohydrochloride] yielded a t1/2 of 2.42 h.
For `Cl.O=C(NO)C1(S(=O)(=O)c2ccc(Oc3ccc4c(c3)OCO4)cc2)CCN(C2CC2)CC1` [Example 421, 4-[[4-(1,3-benzodioxol-5-yloxy)phenyl]sulfonyl]-1-cyclopropyl-N-hydroxy-4-piperidinecarboxamide, monohydrochloride], the “Blood Level @ 6 hr” value (rat, in vivo, po, 20 mg/kg) worked out at 206 ng/mL.
On to `Cl.O=C(NO)C1(S(=O)(=O)c2ccc(Oc3ccc(C(F)(F)F)cc3)cc2)CCN(C2CC2)CC1` [Example 427, 1-cyclopropyl-N-hydroxy-4-[[4-[4-(trifluoromethyl)phenoxy]phenyl]sulfonyl]-4-piperidinecarboxamide, monohydrochloride], for which the t1/2 (Rat Intraveneous, 20 mpk) came to 2.85 h.
Same read-out and setting: for `CCN1CCC(C(=O)NO)(S(=O)(=O)c2ccc(OCc3ccc(C(F)(F)F)cc3)cc2)CC1.Cl` [Example 438, 1-ethyl-N-hydroxy-4-[(4-[[4-[trifluoromethyl)phenyl]methoxy]-phenyl]sulfonyl]-4-piperidine-carboxamide, monohydrochloride] the value was 2.14 h.

The term IC50 denotes the midpoint of a concentration-inhibition curve. The Cmax is the highest concentration seen after dosing.
